Calls of active or inactive are those of the source. The rule behind the calls is not given here.
What was measured:
U-118-MG = experiment: Antiproliferative activity against human U-118-MG cells incubated for 72 hrs by MTT assay; type: functional, cell-based
Detroit 562 = experiment: Antiproliferative activity against human Detroit 562 cells incubated for 72 hrs by MTT assay; type: functional, cell-based
K562 [1] = experiment: Cell cycle arrest in human K562 cells assessed as inhibition of DNA synthesis by measuring increase in cell population at S phase at 1 to 100 nM upto 24 hrs by RNase A/propidium iodide staining-based flow cytometric analysis; type: functional; conditions: dose nM 1-100, time hrs <=24
Bel-7402 [2] = experiment: Antiproliferative activity against human Bel-7402 cells at 11 to 33 nM by IncuCyte zoom live cell analysis; type: functional, cell-based; conditions: dose nM 11-33
Bel-7402 [3] = experiment: Induction of apoptosis in human Bel-7402 cells assessed as viable cells at 1 uM after 72 hrs by FITC-annexin V/propidium iodide-double staining based flow cytometry (reference value: 93.6%); type: functional; conditions: read-out: Activity
Bel-7402 [4] = experiment: Cell cycle arrest in human Bel-7402 cells assessed as increase in cell population at S phase at 3.7 nM by RNase A/propidium iodide staining-based flow cytometric analysis (reference value: 26.3%); type: functional
Bel-7402 [5] = experiment: Induction of apoptosis in human Bel-7402 cells assessed as necrotic cells at 0.01 uM after 72 hrs by FITC-annexin V/propidium iodide-double staining based flow cytometry (reference value: 2.86%); type: functional
A549 = experiment: Antiproliferative activity against human A549 cells incubated for 72 hrs by MTT assay; type: functional, cell-based
Huh-7 = experiment: Antiproliferative activity against human HuH7 cells incubated for 72 hrs by MTT assay; type: functional, cell-based
MDA-MB-157 = experiment: Antiproliferative activity against human MDA-MB-157 cells incubated for 72 hrs by MTT assay; type: functional, cell-based
Bel-7402 [6] = experiment: Cell cycle arrest in human Bel-7402 cells assessed as increase in cell population at S phase at 100 nM by RNase A/propidium iodide staining-based flow cytometric analysis (reference value: 26.3%); type: functional
K562/Adr = experiment: Antiproliferative activity against drug- resistant human K562/ADR cells; type: functional, cell-based
K562 [7] = experiment: Antiproliferative activity against human K562 cells incubated for 72 hrs by MTT assay; type: functional, cell-based
HL-60 = experiment: Antiproliferative activity against human HL-60 cells after 72 hrs by MTT assay; type: functional, cell-based; conditions: HL-60, 72 h
SK-BR-3 = experiment: Antiproliferative activity against human SK-BR-3 cells incubated for 72 hrs by MTT assay; type: functional, cell-based
Zip177 [8] = experiment: Antiproliferative activity against human […] cells incubated for 72 hrs by MTT assay; type: functional, cell-based
Bel-7402 [9] = experiment: Induction of apoptosis in human Bel-7402 cells assessed as early apoptotic cells at 0.01 uM after 72 hrs by FITC-annexin V/propidium iodide-double staining based flow cytometry (reference value: 0.65%); type: functional
SGC-7901 = experiment: Antiproliferative activity against human SGC-7901 cells incubated for 72 hrs by MTT assay; type: functional, cell-based
KB [10] = experiment: Cell cycle arrest in human KB cells assessed as inhibition of DNA synthesis by measuring increase in cell population at S phase at 1 to 10 nM upto 12 hrs by RNase A/propidium iodide staining-based flow cytometric analysis; type: functional; conditions: dose nM 1-10, time hrs <=12
Bel-7402 [11] = experiment: Inhibition of DNA synthesis in human Bel-7402 cells assessed as Brdu positive cells at 0.1 uM measured after 1 hr by propidium iodide staining-based BrdU incorporation assay (reference value: 29.8%); type: functional; parameters: scale not given: the % may be the effect or the level left; conditions: time 30 min, 0.5 h
PC-3 = experiment: Antiproliferative activity against human PC-3 cells incubated for 72 hrs by MTT assay; type: functional, cell-based
786-0 = experiment: Antiproliferative activity against human 786-0 cells incubated for 72 hrs by MTT assay; type: functional, cell-based
K562 [12] = experiment: Antiproliferative activity against human K562 cells; type: functional, cell-based
KB [13] = experiment: Antiproliferative activity against human KB cells; type: functional, cell-based
Zip177 [14] = experiment: Cell cycle arrest in human Zip177 cells assessed as inhibition of DNA synthesis by measuring increase in cell population at S phase at 20 to 200 nM after 24 hrs by RNase A/propidium iodide staining-based flow cytometric analysis; type: functional
Bel-7402 [15] = experiment: Effect on DNA damage marker protein level in human Bel-7402 cells assessed as phosphor gamma H2AX at 100 fold antiproliferative IC50 after 1 hr by Western blot analysis; type: functional, cell-based
BXPC-3 = experiment: Antiproliferative activity against human BxPC-3 cells incubated for 72 hrs by MTT assay; type: functional, cell-based

COc1cc2c3c(c4ccc(OCC#N)cc4c2cc1OC)CN1CCC[C@@H]1C3
inhibition (U-118-MG): Active | inhibition (Detroit 562): Active | Activity (K562 [1]): Active | inhibition (Bel-7402 [2]): Active | viability at 1 µM (Bel-7402 [3]): 79.2% | Activity (Bel-7402 [4]): 27% | Activity (Bel-7402 [5]): 1.59% | inhibition (A549): Active | inhibition (Huh-7): Active | inhibition (MDA-MB-157): Active | Activity (Bel-7402 [6]): 41.3% | IC50 (K562/Adr): 0.0158 µM | inhibition (K562 [7]): Active | IC50 (HL-60): 0.044 µM | inhibition (SK-BR-3): Active | inhibition (Zip177 [8]): Active | Activity (Bel-7402 [9]): 0.55% | inhibition (SGC-7901): Active | Activity (KB [10]): Active | Activity (Bel-7402 [11]): 13% | inhibition (PC-3): Active | inhibition (786-0): Active | IC50 (K562 [12]): 0.0136 µM | IC50 (KB [13]): 1.1 µM | Activity (Zip177 [14]): Active | Activity (Bel-7402 [15]): inactive | inhibition (BXPC-3): Active

— ChEMBL document CHEMBL4665661, “Design, synthesis, and biological activity evaluation of (-)-6-O-desmethylantofine analogues as potent anti-cancer agents” (Bioorg Med Chem, 2019)
